For data set [1], the system named is HT-29 colorectal cancer cells. As to the kind of experiment: MTT anti-proliferative assay against HT-29 cells. The data set is classed as cell-based, human. To be noted: for Selectivity Index: SI = IC50Fibroblast/IC50HT-29cells; for Cytotoxic activity category against HT-29: classified by HT-29 IC50. As to the method: (§1) The toxicity of the thirty-six compounds was determined in vitro by means of the MTT assay. Doxorubicin, a drug widely used to treat different types of cancer, was employed as a positive control, whereas the solvent (DMSO) was used as negative control.
(§2) Test compounds were dissolved in DMSO to obtain stock solutions that were maintained as small aliquots at −20 °C. At time of drug addition, an aliquot was thawed and diluted to obtain the desired final maximum test concentration of 100 μM, with complete medium. The final percentage of DMSO in the wells was less than 1% (v/v). […] Anti-Proliferative Assay
(§3) Doxorubicin, a drug widely used to treat different types of cancer, was used as a positive control. After 48 h, the medium was removed and cells were incubated with MTT solution (0.25 mg/mL). Four hours later, the medium was carefully aspired and formazan crystals were dissolved in DMSO (100 μL). The OD550 was measured using a plate reader (Multiskan Go, Thermo Scientific, Waltham, MA, USA). […] The selectivity index (SI), was calculated as a ratio of IC50Fibroblast/IC50HT-29cells.
(§4) The results are expressed as the mean of triplicate measurements in at least two independent experiments.
(In general: Tetrazolium dyes change colour on reduction, which living cells bring about.)

A further data set deals with fibroblasts PCS-201-012. Description: MTT cytotoxicity assay against normal dermal fibroblasts. The data set is classed as cell-based. The note with it: Fibroblast, value with 95% confidence interval, read-out: PCS-201-012 IC50 μM (95% CI). The protocol:
as §1, §2, §3, §4

The mark [2] stands for this setting: Homo sapiens, HT-29, 48 h, MTT, 48 h, 0–100 µM, value with 95% confidence interval, read-out: HT-29 IC50 μM (95% CI).
Where [3] appears, read: Homo sapiens, HT-29, −logIC50 against HT-29, CoMFA training and test sets, read-out: pIC50 Experimental (converted).

Where two headings read alike, the source gives them in different places.

The term melting point denotes the temperature of the solid-liquid transition.

For the molecule `O=C1c2ccccc2C(=O)C2OC12` (centres unmarked) [Compound 1a, 1a,7a-Dihydronaphtho[2,3-b]oxirene-2,7-dione], the IC50 in data set [1] (setting [2]) and in data set [1] (setting [3]) was 10.8 µM each time.

In the case of `NC1=CC(=O)c2ccccc2C1=O` [Compound 2, 2-Aminonaphthalene-1,4-dione], the IC50 in the data set on fibroblasts PCS-201-012 is 7.34 µM; in data set [1] (Homo sapiens, HT-29, MTT, 48 h, 0–100 µM, value with 95% confidence interval, read-out: HT-29 IC50 μM (95% CI)), 24.6 µM; in data set [1] (Homo sapiens, −logIC50 against HT-29, CoMFA training and test sets, read-out: pIC50 Experimental (converted)), 24.6 µM. In addition, in data set [1], the “Selectivity Index” value is 0.30.

As for `O=C1c2ccccc2C(=O)c2[nH]ccc21` [Compound 2a, 1H-Benzo[f]indole-4,9-dione], the melting point lay in the range of 281 to 283 °C. The IC50 in data set [1] (setting [2]) is more than 100 µM.

The molecule `Cc1cc2c([nH]1)C(=O)c1ccccc1C2=O` [Compound 2b, 2-Methyl-1H-benzo[f]indole-4,9-dione] came in with a melting point of 302 to 304 °C. Besides, the IC50 in data set [1] (setting [2]) was more than 100 µM.

The molecule `CCc1cc2c([nH]1)C(=O)c1ccccc1C2=O` [Compound 2c, 2-Ethyl-1H-benzo[f]indole-4,9-dione] yielded a melting point of 200 to 207 °C. Further, the IC50 in the data set on fibroblasts PCS-201-012 was found to be 79.4 µM. Also, the IC50 in data set [1] (setting [2]) came to 40.2 µM. The IC50 in data set [1] (setting [3]) was 40.2 µM. Besides, in data set [1], the “Cytotoxic activity category against HT-29” value (from here on “Cytotoxic activity category”) is listed as “moderately active (moderately active (20 µM < IC50 ≤ 100 µM))”.

`CCc1[nH]c2c(c1CC)C(=O)c1ccccc1C2=O` [Compound 2d, 2,3-Diethyl-1H-benzo[f]indole-4,9-dione] returned a melting point of 205 to 209 °C. In the data set with fibroblasts PCS-201-012, the IC50 worked out at 51.5 µM. Besides, the IC50 in data set [1] (setting [2]) was determined as 68.7 µM. Besides, in data set [1] (setting [3]), the IC50 is 68.7 µM. In addition, the “Selectivity Index” value in data set [1] is listed as 0.75.

In turn, `Cc1c(C(C)C)[nH]c2c1C(=O)c1ccccc1C2=O` [Compound 2e, 3-Methyl-2-(propan-2-yl)-1H-benzo[f]indole-4,9-dione] came in with a melting point of 245 to 248 °C. Besides, the IC50 in data set [1] (setting [2]) is more than 100 µM.

On to `CCCc1[nH]c2c(c1C)C(=O)c1ccccc1C2=O` [Compound 2f, 3-Methyl-2-propyl-1H-benzo[f]indole-4,9-dione], for which the melting point was 266 to 270 °C. For the same molecule, the IC50 in data set [1] (setting [2]) was more than 100 µM.

For the molecule `CC1=C(N)C(=O)c2ccccc2C1=O` [Compound 3a, 2-Amino-3-methylnaphthalene-1,4-dione], the IC50 in data set [1] (setting [2]) was more than 100 µM.

Take `CC12OC1C(=O)c1ccccc1C2=O` (centres unmarked) [Compound 3b, 1a-Methyl-1a,7a-dihydronaphtho[2,3-b]oxirene-2,7-dione]: in data set [1] (setting [2]), the IC50 turned out to be 57.3 µM.

On to `C/C=C/C1=C(O)C(=O)c2ccccc2C1=O` [Compound 4a, 2-Hydroxy-3-[(1E)-prop-1-en-1-yl]naphthalene-1,4-dione], for which, in data set [1] (setting [2]), the IC50 is more than 100 µM.

For the molecule `CC/C=C/C1=C(O)C(=O)c2ccccc2C1=O` [Compound 4b, 2-[(1E)-But-1-en-1-yl]-3-hydroxynaphthalene-1,4-dione], the melting point was found to be 107 °C. Moreover, in data set [1] (setting [2]), the IC50 is more than 100 µM.

The molecule `CCCC/C=C/C1=C(O)C(=O)c2ccccc2C1=O` [Compound 4c, 2-[(1E)-Hex-1-en-1-yl]-3-hydroxynaphthalene-1,4-dione] showed a melting point of 85 °C. Besides, the IC50 in data set [1] (setting [2]) was more than 100 µM.

On to `Cc1cc2c(o1)C(=O)c1ccccc1C2=O` [Compound 4d, 2-Methylnaphtho[2,3-b]furan-4,9-dione], for which the IC50 was 18.5 µM in the data set with fibroblasts PCS-201-012, 17.6 µM in data set [1] (setting [2]) and 17.6 µM in data set [1] (setting [3]). The “Selectivity Index” value in data set [1] was 1.05. Besides, in data set [1], the “Cytotoxic activity category” value was “highly active”.

Take `CCc1cc2c(o1)C(=O)c1ccccc1C2=O` [Compound 4e, 2-Ethylnaphtho[2,3-b]furan-4,9-dione]: the results for the IC50 (in the data set on fibroblasts PCS-201-012; in data set [1] (setting [2]); in data set [1] (setting [3])) were 20.1 µM, 24.9 µM and 24.9 µM, respectively. The “Selectivity Index” value in data set [1] was found to be 0.80.

On to `CCCCc1cc2c(o1)C(=O)c1ccccc1C2=O` [Compound 4f, 2-Butylnaphtho[2,3-b]furan-4,9-dione], for which the IC50 was 10 µM in the data set with fibroblasts PCS-201-012; 23.7 to 88.1 µM in data set [1] (setting [2]); 21.7 µM in data set [1] (setting [3]); 21.7 µM in data set [1] (MTT, 48 h, 0–100 µM, value with 95% confidence interval, read-out: HT-29 IC50 μM (95% CI)). Also, in data set [1], the “Selectivity Index” value is 0.46.

Molecule `O=C1c2ccccc2C(=O)c2oc(-c3ccccc3)cc21` [Compound 4k, 2-Phenylnaphtho[2,3-b]furan-4,9-dione] registered a melting point of 220 °C. Further, the IC50 in data set [1] (setting [2]) is more than 10 µM.

For `CC(=O)c1cc2c(o1)C(=O)c1ccccc1C2=O` [Compound 4m, 2-Acetylnaphtho[2,3-b]furan-4,9-dione], in the data set on fibroblasts PCS-201-012, the IC50 is 3.5 µM. The IC50 in data set [1] (setting [2]) was 4.61 µM. In data set [1], the “Selectivity Index” value is on record as 0.76 and the “Cytotoxic activity category” value is reported as “highly active”.

The molecule `COC(=O)C1C2=C(OC1c1ccccc1)C(=O)c1ccccc1C2=O` (centres unmarked) [Compound 4n, Methyl 4,9-Dioxo-2-phenyl-2,3,4,9-tetrahydronaphtho[2,3-b]furan-3-carboxylate] returned a melting point of 167 °C. In data set [1] (setting [2]), the IC50 is more than 100 µM.

Turning to `O=C1C2=C(OC(c3ccccc3)C2)C(=O)c2ccccc21` (centres unmarked) [Compound 4q, 2-Phenyl-2,3-dihydronaphtho[2,3-b]furan-4,9-dione], the values for the IC50 (with fibroblasts PCS-201-012; in data set [1] (setting [2])) were 9.16 µM and 30.2 µM, respectively. Moreover, the “Selectivity Index” value in data set [1] is reported as 0.30.

In the case of `O=C1C(=O)c2ccccc2C2=C1CC(c1ccccc1)O2` (centres unmarked) [Compound 4r, 2-Phenyl-2,3-dihydronaphtho[1,2-b]furan-4,5-dione], the IC50 with fibroblasts PCS-201-012 was determined as 8.2 µM; in data set [1] (setting [2]) it was 14.8 µM. The “Selectivity Index” value in data set [1] amounted to 0.56.

On to `COC(=O)c1nc2c(s1)C(=O)c1ccccc1C2=O` [Compound 5c, Methyl 4,9-Dioxo-4,9-dihydronaphtho[2,3-d][1,3]thiazole-2-carboxylate], for which the IC50 in the data set with fibroblasts PCS-201-012 was 7.26 µM; in data set [1] (setting [2]), 13.9 µM; in data set [1] (setting [3]) it was 13.9 µM. Moreover, the “Selectivity Index” value in data set [1] amounted to 0.52.

With `CCN(CC)C(=O)c1cc2c(o1)C(=O)c1ccccc1C2=O` [Compound 6, N,N-diethyl-4,9-dioxo-4,9-dihydronaphtho[2,3-b]furan-2-carboxamide], the IC50 was 1.49 µM in the data set on fibroblasts PCS-201-012, 2.67 µM in data set [1] (setting [2]) and 2.67 µM in data set [1] (setting [3]). For the same molecule, the “Selectivity Index” value in data set [1] was determined as 0.56. Moreover, the “Cytotoxic activity category” value in data set [1] is recorded as “highly active”.

On to `O=C(c1cccs1)c1cc2c(s1)C(=O)c1c(O)cccc1C2=O` [Compound 7, 8-hydroxy-2-(thiophen-2-ylcarbonyl)naphtho[2,3-b]thiophene-4,9-dione], for which the IC50 in the data set with fibroblasts PCS-201-012 is 4.56 µM; in data set [1] (setting [2]), 1.73 µM; in data set [1] (setting [3]), 1.73 µM.

`CCN(CC)C(=O)c1cc2c(s1)C(=O)c1c(Cl)cccc1C2=O` [Compound 8, 8-chloro-N,N-diethyl-4,9-dioxo-4,9-dihydronaphtho[2,3-b]thiophene-2-carboxamide]: the IC50 was 2.56 µM in the data set with fibroblasts PCS-201-012, 6.89 µM in data set [1] (setting [2]) and 6.89 µM in data set [1] (setting [3]). Further, the “Selectivity Index” value in data set [1] is given as 0.37.

Consider `CCc1noc(-c2cc3c(s2)C(=O)c2ccccc2C3=O)n1` [Compound 9, 2-(3-ethyl-1,2,4-oxadiazol-5-yl)naphtho[2,3-b]thiophene-4,9-dione], for which the IC50 was 1.03 µM with fibroblasts PCS-201-012, 3.07 µM in data set [1] (setting [2]) and 3.07 µM in data set [1] (setting [3]). Further, in data set [1], the “Selectivity Index” value turned out to be 0.34.

With `COc1cccc2c1C(=O)c1c(O)c3c(c(O)c1C2=O)C[C@@](O)(C(=O)CO)C[C@@H]3O[C@H]1C[C@H](N)[C@H](O)[C@H](C)O1` [Doxorubicin, reference compound], the IC50 in data set [1] (setting [2]) is 1.07 µM.

The record behind these values is PMC6017957, “Synthesis, Anti-Proliferative Activity Evaluation and 3D-QSAR Study of Naphthoquinone Derivatives as Potential Anti-Colorectal Cancer Agents” (Molecules : A Journal of Synthetic Chemistry and Natural …, 2018).
